Reference: article PMC11783601, “Analogue-Sensitive Inhibition of Histone Demethylases Uncovers Member-Specific Function in Ribosomal Protein Synthesis” (Journal of the American Chemical Society, 2025)

Key:
TET1 = target: T1, TET1 (Homo sapiens, UniProt Q8NFU7); assay: Activity of full-length TET in HEK293T cells, 5hmC dot blot; format: cell-based; settings: dot-blot with 5hmC antibody
T1 construct: transfected with full-length TET1/3 constructs; expressed in transfected cells; host or cells: HEK293T
T1 sequence (Q8NFU7 whole entry): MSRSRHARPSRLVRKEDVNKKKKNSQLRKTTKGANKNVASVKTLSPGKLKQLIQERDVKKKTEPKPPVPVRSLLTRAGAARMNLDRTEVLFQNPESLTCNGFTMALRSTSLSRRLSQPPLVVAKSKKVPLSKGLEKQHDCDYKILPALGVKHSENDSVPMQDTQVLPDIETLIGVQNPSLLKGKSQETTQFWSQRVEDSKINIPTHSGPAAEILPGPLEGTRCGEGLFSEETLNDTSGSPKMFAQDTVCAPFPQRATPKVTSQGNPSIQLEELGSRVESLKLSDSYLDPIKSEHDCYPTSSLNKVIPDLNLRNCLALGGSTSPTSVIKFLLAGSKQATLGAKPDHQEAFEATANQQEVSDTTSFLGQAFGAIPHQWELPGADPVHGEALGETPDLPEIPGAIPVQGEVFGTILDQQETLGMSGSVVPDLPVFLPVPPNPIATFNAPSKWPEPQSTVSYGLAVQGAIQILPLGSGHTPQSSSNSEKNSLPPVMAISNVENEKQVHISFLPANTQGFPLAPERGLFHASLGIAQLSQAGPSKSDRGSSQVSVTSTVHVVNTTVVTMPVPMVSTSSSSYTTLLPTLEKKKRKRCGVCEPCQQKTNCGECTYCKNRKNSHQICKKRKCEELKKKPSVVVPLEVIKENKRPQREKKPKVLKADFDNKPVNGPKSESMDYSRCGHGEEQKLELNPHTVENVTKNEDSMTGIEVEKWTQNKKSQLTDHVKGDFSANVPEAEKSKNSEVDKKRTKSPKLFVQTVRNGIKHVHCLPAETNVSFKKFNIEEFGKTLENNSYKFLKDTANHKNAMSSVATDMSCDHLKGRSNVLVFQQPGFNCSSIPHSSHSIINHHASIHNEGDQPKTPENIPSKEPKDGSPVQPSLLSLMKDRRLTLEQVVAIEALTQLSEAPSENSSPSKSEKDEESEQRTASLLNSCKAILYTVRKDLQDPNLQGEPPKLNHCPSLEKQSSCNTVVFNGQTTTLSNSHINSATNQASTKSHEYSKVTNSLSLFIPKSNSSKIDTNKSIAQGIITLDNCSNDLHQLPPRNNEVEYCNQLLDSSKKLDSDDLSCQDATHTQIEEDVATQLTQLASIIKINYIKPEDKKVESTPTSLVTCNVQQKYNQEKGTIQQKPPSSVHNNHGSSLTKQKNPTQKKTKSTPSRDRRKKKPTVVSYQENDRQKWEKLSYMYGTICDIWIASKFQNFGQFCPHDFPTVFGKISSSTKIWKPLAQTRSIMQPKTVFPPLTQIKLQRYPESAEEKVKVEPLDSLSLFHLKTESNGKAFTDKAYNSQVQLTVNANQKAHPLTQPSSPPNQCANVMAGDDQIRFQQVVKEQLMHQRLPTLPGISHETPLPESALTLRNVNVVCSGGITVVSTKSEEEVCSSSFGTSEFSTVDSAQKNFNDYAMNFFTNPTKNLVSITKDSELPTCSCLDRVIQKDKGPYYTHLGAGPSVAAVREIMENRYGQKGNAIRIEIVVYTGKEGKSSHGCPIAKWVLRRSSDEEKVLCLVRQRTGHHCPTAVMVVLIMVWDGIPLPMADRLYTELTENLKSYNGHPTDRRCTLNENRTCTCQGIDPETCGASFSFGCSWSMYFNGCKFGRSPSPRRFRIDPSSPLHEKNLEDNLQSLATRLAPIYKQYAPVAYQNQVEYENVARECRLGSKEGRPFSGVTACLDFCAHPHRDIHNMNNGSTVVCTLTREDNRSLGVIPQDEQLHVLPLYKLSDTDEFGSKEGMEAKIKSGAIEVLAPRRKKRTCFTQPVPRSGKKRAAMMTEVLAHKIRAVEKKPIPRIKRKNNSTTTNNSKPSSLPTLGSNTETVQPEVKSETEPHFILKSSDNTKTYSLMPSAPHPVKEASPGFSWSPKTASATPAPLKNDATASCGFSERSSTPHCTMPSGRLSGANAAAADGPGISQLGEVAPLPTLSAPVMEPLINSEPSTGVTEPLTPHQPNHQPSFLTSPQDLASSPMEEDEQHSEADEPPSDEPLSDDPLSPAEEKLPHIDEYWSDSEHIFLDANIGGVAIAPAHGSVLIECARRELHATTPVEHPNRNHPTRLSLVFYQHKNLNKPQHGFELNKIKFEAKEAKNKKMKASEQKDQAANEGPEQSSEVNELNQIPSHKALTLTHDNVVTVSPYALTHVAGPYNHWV
Method: (§1) were quantified with Bradford assay (Bio-Rad laboratories) using BSA as a standard and used for
(§2) 14. Expression and activity of full-length TET1 and 3 in HEK293T cells
(§3) To determine the effect of 6A on TET1 and TET3 activity, HEK293T cells were plated in 6 well
(§4) plates and transfected with full-length TET1/3 constructs. Briefly, 2ug of TET1/3 or Empty Vector
(§5) control per well was added to 200µL of JetOptimus buffer and vortexed followed by addition of
(§6) 3µL JetOptimus reagent. The solution was vortexed and left to sit at room temperature for 10
(§7) minutes. The solution was then added to 1.8mL of DMEM and added to the cells in culture plate.
(§8) The cells were left for 4 hours at 37 °C incubator at 5% CO2. The media was aspirated and replaced
(§9) with 2mL of DMEM and 100µM of 6A was added or equivalent volume of DMSO and left in the
(§10) incubator for 24 hours. Cells were then collected and subject to genomic DNA isolation using
(§11) Fisher GeneJET gemoic DNA Purification Kit (Fisher K0721) following manufactures protocol.
(§12) 1000ng of gDNA, as measured via nanodrop, was then subject to Dot Blot experiment. Briefly,
(§13) 20µL of 1000ng gDNA was added to 40µL of 2M NaOH-50mM EDTA solution for 3 minutes at
(§14) room temperature. 140µL of 10mM Tris/1mM EDTA pH 8.0 (TE) buffer and heated at 95 °C for […]

TET3 = target: T2, TET3 (Homo sapiens, UniProt O43151); assay: as above; format: cell-based; settings: dot-blot with 5hmC antibody
T2 construct: transfected with full-length TET1/3 constructs; expressed in transfected cells; host or cells: HEK293T
T2 sequence (O43151 whole entry): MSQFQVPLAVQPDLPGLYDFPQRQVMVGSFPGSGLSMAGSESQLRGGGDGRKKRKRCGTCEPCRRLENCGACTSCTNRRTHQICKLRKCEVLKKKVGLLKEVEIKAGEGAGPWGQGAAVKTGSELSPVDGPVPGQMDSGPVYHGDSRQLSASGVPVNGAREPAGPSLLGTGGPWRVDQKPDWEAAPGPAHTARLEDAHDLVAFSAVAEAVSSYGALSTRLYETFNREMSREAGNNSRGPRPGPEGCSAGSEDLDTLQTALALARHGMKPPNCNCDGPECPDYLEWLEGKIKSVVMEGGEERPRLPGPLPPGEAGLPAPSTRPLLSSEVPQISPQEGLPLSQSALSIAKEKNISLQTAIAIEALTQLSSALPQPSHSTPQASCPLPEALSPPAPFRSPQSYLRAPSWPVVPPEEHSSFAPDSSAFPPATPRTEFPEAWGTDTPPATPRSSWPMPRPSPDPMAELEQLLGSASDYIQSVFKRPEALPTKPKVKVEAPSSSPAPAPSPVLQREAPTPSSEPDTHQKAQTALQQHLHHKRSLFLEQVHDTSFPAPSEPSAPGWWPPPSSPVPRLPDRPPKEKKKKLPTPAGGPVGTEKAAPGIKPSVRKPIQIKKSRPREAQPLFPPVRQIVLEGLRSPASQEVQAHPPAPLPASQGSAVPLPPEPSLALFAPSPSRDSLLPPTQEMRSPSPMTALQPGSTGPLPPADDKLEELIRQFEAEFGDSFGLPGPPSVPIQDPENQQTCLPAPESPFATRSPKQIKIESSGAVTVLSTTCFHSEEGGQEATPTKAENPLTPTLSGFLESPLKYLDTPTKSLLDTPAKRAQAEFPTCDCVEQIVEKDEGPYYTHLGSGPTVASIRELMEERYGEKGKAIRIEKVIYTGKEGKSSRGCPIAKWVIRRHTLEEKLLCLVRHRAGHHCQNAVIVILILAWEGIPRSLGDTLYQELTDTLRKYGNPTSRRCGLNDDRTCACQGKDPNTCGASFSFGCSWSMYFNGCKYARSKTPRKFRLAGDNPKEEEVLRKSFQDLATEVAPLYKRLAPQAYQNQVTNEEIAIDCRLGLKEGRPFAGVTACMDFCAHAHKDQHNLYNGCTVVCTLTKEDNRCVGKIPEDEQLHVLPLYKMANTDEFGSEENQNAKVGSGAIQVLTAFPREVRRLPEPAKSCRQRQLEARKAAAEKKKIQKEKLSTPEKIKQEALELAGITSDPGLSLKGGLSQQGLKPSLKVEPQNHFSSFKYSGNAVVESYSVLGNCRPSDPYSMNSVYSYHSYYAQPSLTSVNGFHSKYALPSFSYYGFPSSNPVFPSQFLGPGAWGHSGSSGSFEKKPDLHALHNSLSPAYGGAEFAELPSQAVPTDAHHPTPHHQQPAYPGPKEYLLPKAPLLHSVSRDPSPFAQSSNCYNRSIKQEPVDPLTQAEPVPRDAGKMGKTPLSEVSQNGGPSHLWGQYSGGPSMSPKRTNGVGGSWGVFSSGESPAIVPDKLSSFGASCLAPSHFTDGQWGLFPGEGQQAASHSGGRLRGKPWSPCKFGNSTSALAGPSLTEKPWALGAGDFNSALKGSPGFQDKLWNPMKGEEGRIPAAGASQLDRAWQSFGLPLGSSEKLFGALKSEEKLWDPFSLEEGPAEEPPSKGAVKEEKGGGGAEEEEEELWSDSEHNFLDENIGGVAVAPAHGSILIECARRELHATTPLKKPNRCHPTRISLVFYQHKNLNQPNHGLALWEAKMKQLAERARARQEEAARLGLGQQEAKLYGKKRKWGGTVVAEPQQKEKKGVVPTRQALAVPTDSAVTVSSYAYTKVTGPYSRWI
Method: as §1, §2, §3, §4, §5, §6, §7, §8, §9, §10, §11, §12, §13, §14

NO66 = target: T3, NO66 (Homo sapiens, UniProt Q9H6W3); assay: MALDI-based assay for C14orf169 (NO66) histidyl hydroxylation of peptide; format: biochemical; settings: MALDI-TOF, peptide substrate
T3 construct: we recombinantly expressed the catalytic domains of 12 wild type dioxygenases; Tev His Flag (C); host or cells: E. coli BL21 (DE3)
T3 sequence (Q9H6W3 294-439 limits assumed): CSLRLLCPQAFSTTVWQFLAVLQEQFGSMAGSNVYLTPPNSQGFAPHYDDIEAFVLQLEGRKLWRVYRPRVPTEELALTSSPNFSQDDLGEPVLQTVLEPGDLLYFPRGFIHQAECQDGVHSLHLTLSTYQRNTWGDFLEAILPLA
Method: MALDI-based assay for C14orf169 (NO66) and MINA: To monitor the enzymatic activity of
C14orf169 and MINA recombinant proteins, previous methods were utilized.10-11 Briefly, 10 µM
each recombinant protein was incubated with 10 µM peptide substrate (NH2-
Ascorbic Acid, 100 µM Iron (II), 50mM HEPES pH 7.5, and 200 µM L-Leu NOG or equivalent
volume of water in 10 µL water. Aliquots were kept on ice for 10 minutes before addition of 200
µM 2OG or equivalent volume of water. After 30-60 minutes incubation at 37 °C, 1 µL sample and
1 µL S-DHB matrix were spotted on a MALDI plate and monitored with Bruker FlexControl in
the reflectron positive mode and analyzed on Bruker FlexAnalysis software. […]

[1] = target: T4, full-length wild type KDM4A (Homo sapiens, UniProt O75164); assay: H3K9me3 Western blot of nuclear extracts of transfected HEK293T cells; format: cell-based; settings: 10 μM n-octyl IOX1, Western blot
T4 construct: Expression of full-length KDM4A-E and their mutants in HEK293T cells; host or cells: HEK293T
T4 sequence (O75164 whole entry): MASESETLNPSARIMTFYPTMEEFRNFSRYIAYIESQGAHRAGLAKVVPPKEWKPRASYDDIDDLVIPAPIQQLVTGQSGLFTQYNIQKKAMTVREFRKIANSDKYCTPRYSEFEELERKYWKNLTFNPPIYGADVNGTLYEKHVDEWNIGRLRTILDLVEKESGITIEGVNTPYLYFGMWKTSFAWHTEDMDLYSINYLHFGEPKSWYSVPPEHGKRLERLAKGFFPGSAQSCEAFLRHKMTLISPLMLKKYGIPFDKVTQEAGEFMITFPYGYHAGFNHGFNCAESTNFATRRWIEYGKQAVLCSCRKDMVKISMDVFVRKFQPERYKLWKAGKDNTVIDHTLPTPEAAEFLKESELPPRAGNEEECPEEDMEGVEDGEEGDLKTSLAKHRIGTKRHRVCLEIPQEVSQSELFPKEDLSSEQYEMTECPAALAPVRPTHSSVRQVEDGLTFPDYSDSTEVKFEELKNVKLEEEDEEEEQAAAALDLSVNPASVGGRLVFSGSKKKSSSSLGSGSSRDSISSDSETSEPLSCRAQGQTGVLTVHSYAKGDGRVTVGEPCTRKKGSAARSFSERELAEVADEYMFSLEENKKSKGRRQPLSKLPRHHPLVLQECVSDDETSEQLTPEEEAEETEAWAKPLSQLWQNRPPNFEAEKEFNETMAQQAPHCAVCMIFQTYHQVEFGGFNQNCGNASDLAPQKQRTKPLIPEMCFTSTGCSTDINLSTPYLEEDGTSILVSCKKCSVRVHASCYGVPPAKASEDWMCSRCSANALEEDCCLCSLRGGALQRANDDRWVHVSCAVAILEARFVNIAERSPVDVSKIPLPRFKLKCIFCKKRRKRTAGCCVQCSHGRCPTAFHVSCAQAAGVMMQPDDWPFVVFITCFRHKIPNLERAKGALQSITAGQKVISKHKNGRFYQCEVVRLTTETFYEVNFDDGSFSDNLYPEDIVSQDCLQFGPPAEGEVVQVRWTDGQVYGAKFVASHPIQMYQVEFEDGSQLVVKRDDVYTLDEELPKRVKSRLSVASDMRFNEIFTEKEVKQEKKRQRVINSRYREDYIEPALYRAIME
Method: To test the orthogonality of NOL toward wild type KDM4A, HEK293T cells, either nontransfected or transfected with KDM4A, were individually treated with DMSO, 400 μM 6A or 10 μM n-octyl IOX1, a nonspecific inhibitor of 2OG enzymes. […] To further probe for off-target effects of 6 on endogenous 2OG enzymes, HEK293T cells were cultured with DMSO or 400 μM 6A and examined for several postsynthetic modifications catalyzed by these dioxygenases. Key trimethylated lysine marks on extracted histone were analyzed by Western blot using corresponding antibodies (Figure S31). […] Similarly, no change in prolyl hydroxylation was detected when cellular extracts were subjected to the pan hydroxyproline antibody.
KDM4A mammalian expression plasmid in CMV vector was purchased from Addgene (plasmid #24180). KDM4B mammalian expression plasmid in CMV vector was purchased from Addgene (plasmid #24181). KDM4C mammalian expression plasmid in CMV vector was purchased from Addgene (plasmid #24214). KDM4D mammalian expression plasmid in pReciever vector was purchased from Genecopoia (EX-Z0917-M06.) KDME mammalian expression plasmid in pRP-EXP was designed from Vector Builder. […]
20. Quantification of fixed-cell imaging data
TIF images obtained from confocal microscopy experiments were quantified in ImageJ. […]

CCCCCCCCOC(=O)C(=O)NC(CC(C)C)C(=O)O [6A, L-Leu octyl-ester NOG]
inhibition of TET1 5hmC formation (TET1): No inhibition
inhibition of TET3 5hmC formation (TET3): No inhibition

CC(C)CC(NC(=O)C(=O)O)C(=O)O (centres unmarked) [compound 6, N-oxalyl leucine]
inhibition of NO66 (NO66): No inhibition

CCCCCCCCOC(=O)c1ccc(O)c2ncccc12 [n-octyl IOX1]
inhibition of wild type KDM4A H3K9me3 demethylation [1]: Inhibition
inhibition of wild type KDM4A H3K9me3 demethylation ([1]; listed as IOX1): strongly inhibited
